Measurements published in US20100029654A1, “CARDIOVASCULAR COMPOSITIONS AND USE OF THE SAME FOR THE TREATMENT OF ALZHEIMER'S DISEASE” (MOUNT SINAI SCHOOL OF MEDICINE, priority 2006, published 2010).
Where a name gives a salt, the structure may show the parent alone. Read-outs that look alike come from different tables or passages of the source.

Columns and labels:
[1] = test system: primary cortico-hippocampal neuron cultures; experiment: lactate dehydrogenase (LDH) activity assay in parallel neuron cultures
Aβ1-42 = Aβ1-42 content in conditioned medium of primary cortico-hippocampal neuron cultures from Tg2576 mice (ELISA; primary and secondary dose-response screening); format: cell-based, mouse; conditions: for Ab1-42 (% of ctl) / activity at 100 µM: drug 100 μM; for reducing Aβ1-42: <85% of ctl; for activity at 100 µM: Mus musculus, Neuron, 24 h, read-out: Ab1-42 (% of ctl)
Protocol: (§1) Potential Aβ-lowering activity was assessed for 150 commercially available cardiovascular drugs using primary cortico-hippocampal neuron cultures derived from embryonic Tg2576 (El 6). […] All cardiovascular reagents were obtained from MicroSource Discovery Systems Inc (Gaylordsville, Conn.). […] Individual cardiovascular agents were applied directly to the culture medium (final 1% DMSO in the culture media). In control studies, parallel Tg2576 primary neuron cultures were treated with vehicle (1% DMSO) alone. The influence of drug treatments in Aβ content in the conditioned medium in treated cultures was assessed by assessing steady state levels of Aβ1-40 and Aβ1-42 in the culture media 24 hours after treatment.
(§2) Embryonic brain tissue was mechanically triturated and centrifuged. Neurons were seeded onto poly-D-lysine-coated 96-well plates at 1.0×10^5 cells per well and cultured in the serum-free chemically-defined medium Neurobasal, supplemented with 2% B27, 0.5 mM L-glutamine and 1% penicillin-streptomycin (Gibco-BRL).
(§3) For primary screening, cultured neurons were treated with 100 μM of drug in duplicates for 16 hours; all drugs were obtained in stock from MicroSource Discovery Systems Inc (Gaylordsville, Conn.). Conditioned medium was collected for Aβ detection using commercially available ELISA kits (BioSource). […] Primary neurons prepared in 96-well plates were treated with 0.1 μM, 1 μM, 10 μM, 50 μM, and 100 μM of each drug in duplicate for ˜16 hours and conditioned medium was collected for Aβ detection.

Aβ1-40 = Aβ1-40 content in conditioned medium of primary cortico-hippocampal neuron cultures from Tg2576 mice (ELISA; primary and secondary dose-response screening); format: cell-based, mouse; conditions: for Ab1-40 (% of ctl) / activity at 100 µM: drug 100 μM; for reduced Aβ1-40: <85% of ctl; for activity at 100 µM: Mus musculus, Neuron, 24 h, read-out: Ab1-40 (% of ctl)
Protocol: as §1, §2, §3

[2] = test system: primary cortico-hippocampal neuron cultures; experiment: MTT in primary screening
[3] = Primary Screening, table sorted by Aβ1-40
[4] = primary screening, table sorted by Aβ1-42
[5] = primary screening, Tg2576 neuron cultures, table sorted by Aβ1-42

LDH (% of ctl) [1, 3] | LDH (% of ctl) [1, 4] | MTT (% of ctl) [2, 3] | MTT (% of ctl) [2, 4] | LDH at E-5M % of change ([1]; drug at E-5M) [%] | SMILES | Ab1-42 (% of ctl) (Aβ1-42; [3]) | reducing Aβ1-42 (Aβ1-42; primary screening) | Ab1-42 (% of ctl) (Aβ1-42; [5]) | Ab1-40 (% of ctl) (Aβ1-40; [3]) | reduced Aβ1-40 (Aβ1-40; primary screening) | Ab1-40 (% of ctl) (Aβ1-40; [5]) | activity at 100 µM (Aβ1-42; [3]) [%] | activity at 100 µM (Aβ1-42; [5]) [%] | activity at 100 µM (Aβ1-40; [3]) [%] | activity at 100 µM (Aβ1-40; [5]) [%]
101.8 % of ctl | 101.8 % of ctl | 102.4 % of ctl | 102.4 % of ctl | – | CCOC(=O)[C@H](CCc1ccccc1)N[C@@H](C)C(=O)N1Cc2ccccc2C[C@H]1C(=O)O [Quinapril Hydrochloride] | – | – | – | – | – | – | 118 | 118 | 119 | 119
107.3 % of ctl | 107.3 % of ctl | 107.1 % of ctl | 107.1 % of ctl | – | CNCCc1ccccn1 [Betahistine Hydrochloride] | – | – | – | – | – | – | 98.9 | 98.9 | 110 | 110
118.9 % of ctl | 118.9 % of ctl | 126.4 % of ctl | 126.4 % of ctl | – | CCOC(=O)[C@H](CCc1ccccc1)N[C@@H](C)C(=O)N1CCC[C@H]1C(=O)O [Enalapril Maleate] | – | – | – | – | – | – | 97.6 | 97.6 | 101 | 101
– | – | – | – | 1.9 | CCCCc1oc2ccccc2c1C(=O)c1cc(I)c(OCCN(CC)CC)c(I)c1 [Amiodarone Hydrochloride] | – | useful in reducing Aβ1-42 | – | – | reduced Aβ1-40 | – | 23.2 | 23.2 | 14.9 | 14.9

Continued, compound first:

SMILES | LDH (% of ctl) [1, 3] | LDH (% of ctl) [1, 4] | MTT (% of ctl) [2, 3] | MTT (% of ctl) [2, 4] | LDH at E-5M % of change ([1]; drug at E-5M) [%] | Ab1-42 (% of ctl) (Aβ1-42; [3]) | reducing Aβ1-42 (Aβ1-42; primary screening) | Ab1-42 (% of ctl) (Aβ1-42; [5]) | Ab1-40 (% of ctl) (Aβ1-40; [3]) | reduced Aβ1-40 (Aβ1-40; primary screening) | Ab1-40 (% of ctl) (Aβ1-40; [5]) | activity at 100 µM (Aβ1-42; [3]) [%] | activity at 100 µM (Aβ1-42; [5]) [%] | activity at 100 µM (Aβ1-40; [3]) [%] | activity at 100 µM (Aβ1-40; [5]) [%]
O=C(O)C(O)C(O)C(=O)O.OCc1cccnc1 (stereo not shown) [Nicotinyl Tartrate] | 122.6 % of ctl | 122.6 % of ctl | 92.7 % of ctl | 92.7 % of ctl | – | 73.8 % of ctl | useful in reducing Aβ1-42 | 73.8 % of ctl | 80.0 % of ctl | reduced Aβ1-40 | 80.0 % of ctl | – | – | – | –
CCC(C)(C)C(=O)O[C@H]1C[C@@H](C)C=C2C=C[C@H](C)[C@H](CC[C@@H]3C[C@@H](O)CC(=O)O3)[C@H]21 [Simvastatin] | 129.9 % of ctl | 129.9 % of ctl | 93.4 % of ctl | 93.4 % of ctl | – | – | – | – | – | – | – | 122 | 122 | 28 | 28
NC(N)=O [Urea] | 130.8 % of ctl | 130.8 % of ctl | 96.7 % of ctl | 96.7 % of ctl | – | 104.9 % of ctl | – | 104.9 % of ctl | – | – | – | – | – | – | –
NS(=O)(=O)c1cc2c(cc1Cl)NCNS2(=O)=O [Hydrochlorothiazide] | 281.1 % of ctl | 281.1 % of ctl | 102.1 % of ctl | 102.1 % of ctl | – | – | – | – | – | – | – | 116 | 116 | 89.5 | 89.5
CC(C)(C)NCC(O)c1ccccc1Cl (stereo not shown) [Tulobuterol] | – | – | – | – | – | – | – | – | – | – | – | – | – | 95.5 | 95.5
CC[C@@H](C)C(=O)O[C@H]1[C@H](O)[C@H]2[C@@H](CN3C[C@@H](C)CC[C@H]3[C@@]2(C)O)[C@@H]2C[C@]34O[C@]5(O)[C@@H](OC(=O)[C@@](C)(O)CC)CC[C@@]3(C)[C@@H]5[C@@H](OC(C)=O)[C@@H](OC(C)=O)[C@H]4[C@@]21O [Protoveratrine A] | – | – | – | – | – | 104.6 % of ctl | – | 104.6 % of ctl | 91.7 % of ctl | – | 91.7 % of ctl | – | – | – | –
CC(C)(Oc1ccc(CCNC(=O)c2ccc(Cl)cc2)cc1)C(=O)O [BENZAFIBRATE] | – | – | – | – | – | 99.5 % of ctl | – | 99.5 % of ctl | 107.2 % of ctl | – | 107.2 % of ctl | – | – | – | –
